Holding throughout (experiment): endpoint assay, LC-MS quantification of product
In series [1] the test system is CCCCCc1cc(O)cc(O)c1C(=O)O. The class given is biochemical, Aspergillus terreus. As to conditions: co-substrate GPP 1 mM, 10 μM enzyme, 25 mM Tris pH 8, 150 mM NaCl, 5% glycerol, 25°C, approximate constant (high enzyme concentration). The text has this:
(§1) endpoint assay, LC-MS quantification of product on AtaPT

Series [2] concerns the target T1, AtaPT (Aspergillus terreus, UniProt A0A1B0UHJ4, E91Q).
T1 construct: gene PT; N-terminal His6 tag (pETM11), codon-optimised synthetic gene, E. coli ArcticExpress (DE3), purified
The class given is biochemical. To be noted: read-out: Apparent Km; co-substrate GPP 1 mM; 1 μM enzyme; 25 mM Tris pH 8, 150 mM NaCl, 5% glycerol; 25°C; approximate constant.
Excerpt: as §1

Series [3] has as its target T2, AtaPT (Aspergillus terreus, UniProt A0A1B0UHJ4, E91A).
T2 construct: gene PT; N-terminal His6 tag (pETM11), codon-optimised synthetic gene, E. coli ArcticExpress (DE3), purified
The class given is biochemical. As to conditions: read-out: Apparent Km; co-substrate GPP 1 mM; 1 μM enzyme; 25 mM Tris pH 8, 150 mM NaCl, 5% glycerol; 25°C; approximate constant.
Excerpt: as §1

Series [4] deals with T3, AtaPT (Aspergillus terreus, UniProt A0A1B0UHJ4, E91D).
T3 construct: gene PT; N-terminal His6 tag (pETM11), codon-optimised synthetic gene, E. coli ArcticExpress (DE3), purified
It is filed as biochemical. As to conditions: read-out: Apparent Km; co-substrate GPP 1 mM; 1 μM enzyme; 25 mM Tris pH 8, 150 mM NaCl, 5% glycerol; 25°C; approximate constant.
Excerpt: as §1

Here are results for two compounds from publication PMC10263468, “Biosynthesis of cannabigerol and cannabigerolic acid: the gateways to further cannabinoid production” (Synthetic Biology, 2023).

T3 sequence (A0A1B0UHJ4 whole entry E91D): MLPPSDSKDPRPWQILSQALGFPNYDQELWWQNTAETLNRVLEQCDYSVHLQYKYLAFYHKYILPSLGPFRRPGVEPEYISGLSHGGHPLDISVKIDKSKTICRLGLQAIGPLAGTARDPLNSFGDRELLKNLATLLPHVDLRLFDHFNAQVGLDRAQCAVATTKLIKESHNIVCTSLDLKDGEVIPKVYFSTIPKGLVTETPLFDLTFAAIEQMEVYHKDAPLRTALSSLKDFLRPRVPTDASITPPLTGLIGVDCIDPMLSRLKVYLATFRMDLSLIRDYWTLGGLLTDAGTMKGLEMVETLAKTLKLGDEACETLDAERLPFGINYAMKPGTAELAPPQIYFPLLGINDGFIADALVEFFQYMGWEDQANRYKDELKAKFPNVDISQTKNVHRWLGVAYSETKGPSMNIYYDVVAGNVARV
T2 sequence (A0A1B0UHJ4 whole entry E91A): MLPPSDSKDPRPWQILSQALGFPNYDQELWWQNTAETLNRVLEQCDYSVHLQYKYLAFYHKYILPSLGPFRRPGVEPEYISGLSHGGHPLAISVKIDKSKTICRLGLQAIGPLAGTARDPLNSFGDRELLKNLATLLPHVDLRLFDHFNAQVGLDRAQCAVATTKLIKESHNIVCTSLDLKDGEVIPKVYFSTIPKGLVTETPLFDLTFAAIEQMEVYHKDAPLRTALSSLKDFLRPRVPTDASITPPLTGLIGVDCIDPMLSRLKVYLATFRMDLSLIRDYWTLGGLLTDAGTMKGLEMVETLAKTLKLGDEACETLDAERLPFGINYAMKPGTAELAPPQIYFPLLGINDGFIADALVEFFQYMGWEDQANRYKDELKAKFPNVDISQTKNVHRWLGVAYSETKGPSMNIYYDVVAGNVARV
T1 sequence (A0A1B0UHJ4 whole entry E91Q): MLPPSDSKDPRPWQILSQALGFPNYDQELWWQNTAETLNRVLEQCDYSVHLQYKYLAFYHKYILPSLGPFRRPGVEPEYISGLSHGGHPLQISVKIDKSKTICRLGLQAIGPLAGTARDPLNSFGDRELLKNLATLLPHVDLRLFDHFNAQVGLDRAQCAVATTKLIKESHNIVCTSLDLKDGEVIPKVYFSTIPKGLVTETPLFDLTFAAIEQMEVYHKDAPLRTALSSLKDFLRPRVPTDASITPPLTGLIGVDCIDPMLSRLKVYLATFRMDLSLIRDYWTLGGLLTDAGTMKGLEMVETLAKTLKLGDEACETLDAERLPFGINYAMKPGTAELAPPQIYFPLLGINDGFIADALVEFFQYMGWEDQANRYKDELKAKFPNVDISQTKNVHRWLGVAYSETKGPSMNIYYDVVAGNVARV

Usually Km stands for the substrate concentration at which the rate is half of its maximum. What is called kcat is the maximal rate divided by the concentration of active sites. Turning to AtaPT (Aspergillus terreus), in series [1], the Km was found to be 1083 ± 126 µM and the kcat amounted to 0.000147 ± 5e-06 s⁻¹.
For the compound `CCCCCc1cc(O)cc(O)c1C(=O)O` [OA, olivetolic acid], the values for the Km on AtaPT [2], on AtaPT [3] and on AtaPT [4] were 94 ± 32 µM, 332 ± 96 µM and 266 ± 44 µM, respectively.
